Measurements taken from publication PMC12578388, “Allosteric modulation of the solute carrier transporter SLC39A8 potentiates manganese and cadmium uptake” (The Journal of Clinical Investigation, 2025).

Tests used:
Assay type in all cases: cell-based
[1] = target: T1, mouse SLC39A8 (Mus musculus, UniProt Q91W10); assay: Cd uptake in cells expressing mouse SLC39A8
T1 sequence (Q91W10 20-462): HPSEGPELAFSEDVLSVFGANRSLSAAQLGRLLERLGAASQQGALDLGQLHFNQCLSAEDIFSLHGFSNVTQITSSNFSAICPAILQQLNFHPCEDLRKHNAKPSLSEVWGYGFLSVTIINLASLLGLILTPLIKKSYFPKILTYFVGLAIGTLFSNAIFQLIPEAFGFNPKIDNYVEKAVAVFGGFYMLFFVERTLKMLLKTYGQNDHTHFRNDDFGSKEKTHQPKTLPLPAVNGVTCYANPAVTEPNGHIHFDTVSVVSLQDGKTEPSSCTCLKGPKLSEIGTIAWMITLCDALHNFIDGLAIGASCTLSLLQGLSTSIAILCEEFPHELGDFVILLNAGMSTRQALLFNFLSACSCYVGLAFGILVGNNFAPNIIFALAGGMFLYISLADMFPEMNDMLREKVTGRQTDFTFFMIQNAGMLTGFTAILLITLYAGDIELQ

[2] = target: T2, pig SLC39A8 (Sus scrofa, UniProt A0A480EKF5, F327C); assay: Cd uptake in cells expressing mutant pig SLC39A8 (gain of EFV sensitivity)
T2 sequence (A0A480EKF5 20-461 F327C): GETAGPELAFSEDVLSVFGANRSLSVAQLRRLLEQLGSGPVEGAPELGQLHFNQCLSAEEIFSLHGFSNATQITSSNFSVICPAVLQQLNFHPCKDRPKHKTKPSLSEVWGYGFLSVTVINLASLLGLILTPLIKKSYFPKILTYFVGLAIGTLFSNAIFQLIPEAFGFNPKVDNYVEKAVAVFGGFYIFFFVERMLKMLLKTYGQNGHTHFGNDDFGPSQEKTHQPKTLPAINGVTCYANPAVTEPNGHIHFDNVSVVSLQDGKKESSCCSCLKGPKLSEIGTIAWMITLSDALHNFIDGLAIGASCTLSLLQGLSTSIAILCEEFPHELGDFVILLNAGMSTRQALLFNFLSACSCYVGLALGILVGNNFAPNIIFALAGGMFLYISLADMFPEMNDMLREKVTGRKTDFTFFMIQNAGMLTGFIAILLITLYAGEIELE

[3] = target: T3, rat SLC39A8 (Rattus norvegicus, UniProt Q5FVQ0, Y328C); assay: Cd uptake in cells expressing mutant rat SLC39A8 (gain of EFV sensitivity)
T3 sequence (Q5FVQ0 20-462 Y328C): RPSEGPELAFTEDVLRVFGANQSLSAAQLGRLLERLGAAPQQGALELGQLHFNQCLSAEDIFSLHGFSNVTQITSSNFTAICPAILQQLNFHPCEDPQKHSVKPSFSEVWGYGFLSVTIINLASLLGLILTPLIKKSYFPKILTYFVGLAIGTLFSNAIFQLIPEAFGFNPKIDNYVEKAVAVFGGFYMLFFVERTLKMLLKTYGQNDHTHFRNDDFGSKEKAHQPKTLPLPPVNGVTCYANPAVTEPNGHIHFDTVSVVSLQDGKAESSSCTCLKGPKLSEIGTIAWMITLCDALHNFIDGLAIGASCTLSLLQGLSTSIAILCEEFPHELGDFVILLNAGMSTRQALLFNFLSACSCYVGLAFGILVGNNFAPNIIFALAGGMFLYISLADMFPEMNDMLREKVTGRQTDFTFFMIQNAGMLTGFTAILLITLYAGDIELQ

## O=C1Nc2ccc(Cl)cc2[C@@](C#CC2CC2)(C(F)(F)F)O1 [compound 1, efavirenz]
[1]
  Cd uptake in cells expressing mouse SLC39A8: EFV was able to enhance Cd uptake in cells expressing mouse SLC39A8 but not chicken, frog, or zebrafish
[2]
  Cd uptake in cells expressing mutant pig SLC39A8 (gain of EFV sensitivity): EFV sensitivity could be created by replacing these residues with cysteine in pig F327C and rat Y328C, respectively
[3]
  Cd uptake in cells expressing mutant rat SLC39A8 (gain of EFV sensitivity): EFV sensitivity could be created by replacing these residues with cysteine in pig F327C and rat Y328C, respectively
